Test results as given in patent US12612410B2 (CHILDREN'S HOSPITAL MEDICAL CENTER, priority 2020, dated 2026).

Columns and labels:
IRAK1 = target: T1, IRAK1 (Homo sapiens, UniProt P51617); assay: RBC HotSpot Kinase Assay, IRAK1; assay type: biochemical; details: isolated kinase, 33P-ATP
T1 construct: purchased Reaction Biology (RBC), HotSpot kinase assay
How it was run: (§1)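 Functional radiometric activity assay: kinase + substrate + cofactors in Hepes pH 7.5/MgCl2/EGTA/Brij35/BSA/Na3VO4/DTT, 1% DMSO; cmpd preincubation 20 min RT; 33P-ATP start, 2 h RT; P81 filter-binding readout.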

FLT3 = target: T2, FLT3 (Homo sapiens, UniProt P36888); assay: RBC HotSpot Kinase Assay, FLT3; assay type: biochemical; set-up: purchased Reaction Biology (RBC), HotSpot kinase assay; details: isolated kinase, 33P-ATP
T2 sequence (P36888 27-993): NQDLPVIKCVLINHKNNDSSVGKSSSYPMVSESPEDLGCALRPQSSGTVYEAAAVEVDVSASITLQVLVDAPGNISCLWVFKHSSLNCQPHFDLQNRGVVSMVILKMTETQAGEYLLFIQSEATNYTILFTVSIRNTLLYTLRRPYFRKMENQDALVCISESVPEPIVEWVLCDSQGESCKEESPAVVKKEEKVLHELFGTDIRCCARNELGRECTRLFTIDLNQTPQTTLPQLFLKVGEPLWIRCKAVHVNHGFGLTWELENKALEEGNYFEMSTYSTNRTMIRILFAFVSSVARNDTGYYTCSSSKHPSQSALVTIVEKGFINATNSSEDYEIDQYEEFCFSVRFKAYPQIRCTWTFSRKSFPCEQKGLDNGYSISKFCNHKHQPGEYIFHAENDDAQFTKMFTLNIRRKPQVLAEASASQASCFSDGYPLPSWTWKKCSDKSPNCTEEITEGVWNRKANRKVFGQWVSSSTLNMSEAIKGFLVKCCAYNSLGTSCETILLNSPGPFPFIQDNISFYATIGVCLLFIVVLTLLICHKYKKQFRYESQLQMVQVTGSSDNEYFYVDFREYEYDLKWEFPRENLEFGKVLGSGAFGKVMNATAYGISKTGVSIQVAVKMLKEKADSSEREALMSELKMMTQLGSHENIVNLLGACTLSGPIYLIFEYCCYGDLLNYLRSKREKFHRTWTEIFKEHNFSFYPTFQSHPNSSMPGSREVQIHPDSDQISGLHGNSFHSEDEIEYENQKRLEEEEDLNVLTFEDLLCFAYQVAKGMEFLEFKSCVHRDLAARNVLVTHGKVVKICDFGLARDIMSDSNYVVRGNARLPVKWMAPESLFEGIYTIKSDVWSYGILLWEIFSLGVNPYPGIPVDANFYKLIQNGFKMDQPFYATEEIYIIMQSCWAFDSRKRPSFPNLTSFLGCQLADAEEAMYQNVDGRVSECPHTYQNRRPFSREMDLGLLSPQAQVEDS
How it was run: as §1

T1 sequence (P51617 whole entry): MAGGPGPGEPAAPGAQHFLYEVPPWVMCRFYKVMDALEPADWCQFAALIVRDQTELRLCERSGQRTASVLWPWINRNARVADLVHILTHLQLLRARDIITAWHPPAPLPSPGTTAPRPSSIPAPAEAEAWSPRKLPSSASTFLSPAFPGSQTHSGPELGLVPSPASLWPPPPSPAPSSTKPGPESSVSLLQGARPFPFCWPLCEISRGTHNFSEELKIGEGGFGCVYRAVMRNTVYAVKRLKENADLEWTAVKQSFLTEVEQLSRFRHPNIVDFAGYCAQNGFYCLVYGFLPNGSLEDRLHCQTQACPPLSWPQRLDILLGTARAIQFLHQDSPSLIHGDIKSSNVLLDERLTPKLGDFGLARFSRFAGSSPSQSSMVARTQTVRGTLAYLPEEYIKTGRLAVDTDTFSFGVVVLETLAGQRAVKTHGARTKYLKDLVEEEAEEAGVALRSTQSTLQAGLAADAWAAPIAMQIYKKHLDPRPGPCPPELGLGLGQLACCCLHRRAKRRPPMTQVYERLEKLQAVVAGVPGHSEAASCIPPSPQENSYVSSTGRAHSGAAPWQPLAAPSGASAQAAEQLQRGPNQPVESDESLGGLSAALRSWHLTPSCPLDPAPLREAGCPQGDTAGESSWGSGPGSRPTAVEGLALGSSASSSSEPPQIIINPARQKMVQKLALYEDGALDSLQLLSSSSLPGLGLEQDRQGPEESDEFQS

An IC50 (IRAK1) of 45 nM and an IC50 (FLT3) of 1 nM were found for `CC(C)(O)c1cn2c(-c3nc(N[C@H]4CNCC[C@@H]4F)c(F)cc3F)cnc2cn1` [Compound 35, 2-(3-(3,5-difluoro-6-(((3S,4S)-4-fluoropiperidin-3-yl)amino)pyridin-2-yl)imidazo[1,2-a]pyrazin-6-yl)propan-2-ol] in this work.

An IC50 (IRAK1) of 92 nM and an IC50 (FLT3) of under 0.5 nM were found for `FC(F)(F)COc1cn2c(-c3cccc(N[C@@H]4CCNC4)n3)cnc2cn1` [Compound 38, (R)-N-(pyrrolidin-3-yl)-6-(6-(2,2,2-trifluoroethoxy)imidazo[1,2-a]pyrazin-3-yl)pyridin-2-amine] in this work.

An IC50 (IRAK1) of 895 nM and an IC50 (FLT3) of under 0.5 nM were found for `Cn1cc(-c2cn3c(-c4cccc(N[C@@H]5CCCNC5)n4)cnc3cn2)cn1` [Compound 43, (R)-6-(6-(1-methyl-1H-pyrazol-4-yl)imidazo[1,2-a]pyrazin-3-yl)-N-(piperidin-3-yl)pyridin-2-amine] in this work.

An IC50 (IRAK1) of 113 nM and an IC50 (FLT3) of 0.6 nM were found for `F[C@H]1CNC[C@@H]1Nc1cccc(-c2cnc3cnc(C4CC4)cn23)n1` [Compound 50, 6-(6-cyclopropylimidazo[1,2-a]pyrazin-3-yl)-N-((3S,4S)-4-fluoropyrrolidin-3-yl)pyridin-2-amine] in this work.

An IC50 (IRAK1) of 80 nM and an IC50 (FLT3) of under 0.5 nM were found for `F[C@H]1CCNC[C@@H]1Nc1cccc(-c2cnc3cnc(C4CC4)cn23)n1` [Compound 51, 6-(6-cyclopropylimidazo[1,2-a]pyrazin-3-yl)-N-((3S,4S)-4-fluoropiperidin-3-yl)pyridin-2-amine] in this work.

An IC50 (IRAK1) of 202 nM and an IC50 (FLT3) of under 0.5 nM were found for `Cn1cc(-c2cn3c(-c4cccc(N[C@H]5CNC[C@@H]5F)n4)cnc3cn2)cn1` [Compound 52, N-((3S,4S)-4-fluoropyrrolidin-3-yl)-6-(6-(1-methyl-1H-pyrazol-4-yl)imidazo[1,2-a]pyrazin-3-yl)pyridin-2-amine] in this work.

An IC50 (IRAK1) of 117 nM and an IC50 (FLT3) of 0.7 nM were found for `FC(F)COc1cn2c(-c3cccc(N[C@H]4CNC[C@@H]4F)n3)cnc2cn1` [Compound 58, 6-(6-(2,2-difluoroethoxy)imidazo[1,2-a]pyrazin-3-yl)-N-((3S,4S)-4-fluoropyrrolidin-3-yl)pyridin-2-amine] in this work.

An IC50 (IRAK1) of 53 nM and an IC50 (FLT3) of 0.6 nM were found for `O=S1(=O)CCCN1c1cn2c(-c3cccc(N[C@H]4CNCC[C@@H]4F)n3)cnc2cn1` [Compound 97, 2-(3-(6-(((3S,4S)-4-fluoropiperidin-3-yl)amino)pyridin-2-yl)imidazo[1,2-a]pyrazin-6-yl)isothiazolidine 1,1-dioxide] in this work.

An IC50 (IRAK1) of 130 nM and an IC50 (FLT3) of 1 nM were found for `O=C1CCCN1c1cn2c(-c3nc(N[C@H]4CNCC[C@@H]4F)c(F)cc3F)cnc2cn1` [Compound 107, 1-[3-[3,5-difluoro-6-[[(3S,4S)-4-fluoro-3-piperidyl]amino]-2-pyridyl]imidazo[1,2-a]pyrazin-6-yl]pyrrolidin-2-one] in this work.

An IC50 (IRAK1) of 109 nM and an IC50 (FLT3) of 0.9 nM were found for `O=C1CCCN1c1cn2c(-c3nc(N[C@@H]4CCCNC4)c(F)cc3F)cnc2cn1` [Compound 108, (R)-1-(3-(3,5-difluoro-6-(piperidin-3-ylamino)pyridin-2-yl)imidazo[1,2-a]pyrazin-6-yl)pyrrolidin-2-one] in this work.

An IC50 (IRAK1) of 22 nM and an IC50 (FLT3) of 1 nM were found for `O=C1NCCN1c1cn2c(-c3cccc(N[C@H]4CNCC[C@@H]4F)n3)cnc2cn1` [Compound 118, 1-(3-(6-(((3S,4S)-4-fluoropiperidin-3-yl)amino)pyridin-2-yl)imidazo[1,2-a]pyrazin-6-yl)imidazolidin-2-one] in this work.

An IC50 (IRAK1) of 110 nM and an IC50 (FLT3) of under 0.5 nM were found for `O=C1CCCN1c1cn2c(-c3cccc(N[C@H]4CNCC[C@@H]4F)n3)cnc2cn1` [Compound 119, 1-(3-(6-(((3S,4S)-4-fluoropiperidin-3-yl)amino)pyridin-2-yl)imidazo[1,2-a]pyrazin-6-yl)pyrrolidin-2-one] in this work.

An IC50 (IRAK1) of 207 nM and an IC50 (FLT3) of under 0.5 nM were found for `O=C1CCCN1c1cn2c(-c3cccc(N[C@H]4CNC[C@@H]4F)n3)cnc2cn1` [Compound 121, 1-(3-(6-(((3S,4S)-4-fluoropyrrolidin-3-yl)amino)pyridin-2-yl)imidazo[1,2-a]pyrazin-6-yl)pyrrolidin-2-one] in this work.

An IC50 (IRAK1) of 51 nM and an IC50 (FLT3) of under 0.5 nM were found for `CC(C)(C)c1cn2c(-c3nc(N[C@H]4CNC[C@@H]4F)c(F)cc3F)cnc2cn1` [Compound 125] in this work.

An IC50 (IRAK1) of 80 nM and an IC50 (FLT3) of under 0.5 nM were found for `CC(C)(C)c1cn2c(-c3nc(N[C@@H]4CCCNC4)c(F)cc3F)cnc2cn1` [Compound 126, (R)-6-(6-(tert-butyl)imidazo[1,2-a]pyrazin-3-yl)-3,5-difluoro-N-(piperidin-3-yl)pyridin-2-amine] in this work.

An IC50 (IRAK1) of 60 nM and an IC50 (FLT3) of under 0.5 nM were found for `CC(C)(C)c1cn2c(-c3nc(N[C@H]4CNCC[C@@H]4F)c(F)cc3F)cnc2cn1` [Compound 127, 6-(6-(tert-butyl)imidazo[1,2-a]pyrazin-3-yl)-3,5-difluoro-N-((3S,4S)-4-fluoropiperidin-3-yl)pyridin-2-amine] in this work.

An IC50 (IRAK1) of 97 nM and an IC50 (FLT3) of under 0.5 nM were found for `CC(C)(C)c1cn2c(-c3cccc(N[C@@H]4CCCNC4)n3)cnc2cn1` [Compound 129, (R)-6-(6-(tert-butyl)imidazo[1,2-a]pyrazin-3-yl)-N-(piperidin-3-yl)pyridin-2-amine] in this work.

An IC50 (IRAK1) of 49 nM and an IC50 (FLT3) of under 0.5 nM were found for `CC(C)(C)c1cn2c(-c3cccc(N[C@H]4CNCC[C@@H]4F)n3)cnc2cn1` [Compound 130, 6-(6-(tert-butyl)imidazo[1,2-a]pyrazin-3-yl)-N-((3S,4S)-4-fluoropiperidin-3-yl)pyridin-2-amine] in this work.
